Measured values: BigSolDB 2.1

CNC(=O)c1cc(Oc2ccc(N)cc2)ccn1
solubility (mole fraction) (in THF, 278.15 K): 0.0898 | solubility (mole fraction) (in THF, 283.15 K): 0.0978 | solubility (mole fraction) (in THF, 288.15 K): 0.108 | solubility (mole fraction) (in THF, 293.15 K): 0.118 | solubility (mole fraction) (in THF, 298.15 K): 0.129 | solubility (mole fraction) (in THF, 303.15 K): 0.143 | solubility (mole fraction) (in THF, 308.15 K): 0.158 | solubility (mole fraction) (in THF, 313.15 K): 0.173 | solubility (mole fraction) (in THF, 318.15 K): 0.192 | solubility (mole fraction) (in THF, 323.15 K): 0.211 | solubility (mole fraction) (in THF, 328.15 K): 0.233 | solubility (mole fraction) (in acetonitrile, 278.15 K): 0.0273 | solubility (mole fraction) (in acetonitrile, 283.15 K): 0.0317 | solubility (mole fraction) (in acetonitrile, 288.15 K): 0.0394 | solubility (mole fraction) (in acetonitrile, 293.15 K): 0.0491 | solubility (mole fraction) (in acetonitrile, 298.15 K): 0.0595 | solubility (mole fraction) (in acetonitrile, 303.15 K): 0.0737 | solubility (mole fraction) (in acetonitrile, 308.15 K): 0.0897 | solubility (mole fraction) (in acetonitrile, 313.15 K): 0.109 | solubility (mole fraction) (in acetonitrile, 318.15 K): 0.133 | solubility (mole fraction) (in acetonitrile, 323.15 K): 0.161 | solubility (mole fraction) (in acetonitrile, 328.15 K): 0.195 | solubility (mole fraction) (in ethanol, 278.15 K): 0.00539 | solubility (mole fraction) (in ethanol, 283.15 K): 0.00707 | solubility (mole fraction) (in ethanol, 288.15 K): 0.00914 | solubility (mole fraction) (in ethanol, 293.15 K): 0.0136 | solubility (mole fraction) (in ethanol, 298.15 K): 0.0179 | solubility (mole fraction) (in ethanol, 303.15 K): 0.0249 | solubility (mole fraction) (in ethanol, 308.15 K): 0.0331 | solubility (mole fraction) (in ethanol, 313.15 K): 0.044 | solubility (mole fraction) (in ethanol, 318.15 K): 0.0587 | solubility (mole fraction) (in ethanol, 323.15 K): 0.0764 | solubility (mole fraction) (in ethanol, 328.15 K): 0.0999 | solubility (mole fraction) (in ethyl acetate, 278.15 K): 0.0528 | solubility (mole fraction) (in ethyl acetate, 283.15 K): 0.0637 | solubility (mole fraction) (in ethyl acetate, 288.15 K): 0.0773 | solubility (mole fraction) (in ethyl acetate, 293.15 K): 0.0919 | solubility (mole fraction) (in ethyl acetate, 298.15 K): 0.11 | solubility (mole fraction) (in ethyl acetate, 303.15 K): 0.129 | solubility (mole fraction) (in ethyl acetate, 308.15 K): 0.151 | solubility (mole fraction) (in ethyl acetate, 313.15 K): 0.179 | solubility (mole fraction) (in ethyl acetate, 318.15 K): 0.207 | solubility (mole fraction) (in ethyl acetate, 323.15 K): 0.238 | solubility (mole fraction) (in ethyl acetate, 328.15 K): 0.28 | solubility (mole fraction) (in methanol, 278.15 K): 0.00809 | solubility (mole fraction) (in methanol, 283.15 K): 0.0117 | solubility (mole fraction) (in methanol, 288.15 K): 0.0158 | solubility (mole fraction) (in methanol, 293.15 K): 0.0203 | solubility (mole fraction) (in methanol, 298.15 K): 0.0276 | solubility (mole fraction) (in methanol, 303.15 K): 0.0369 | solubility (mole fraction) (in methanol, 308.15 K): 0.0488 | solubility (mole fraction) (in methanol, 313.15 K): 0.0634 | solubility (mole fraction) (in methanol, 318.15 K): 0.082 | solubility (mole fraction) (in methanol, 323.15 K): 0.105 | solubility (mole fraction) (in methanol, 328.15 K): 0.134 | solubility (mole fraction) (in n-butanol, 278.15 K): 0.00322 | solubility (mole fraction) (in n-butanol, 283.15 K): 0.0044 | solubility (mole fraction) (in n-butanol, 288.15 K): 0.00563 | solubility (mole fraction) (in n-butanol, 293.15 K): 0.00781 | solubility (mole fraction) (in n-butanol, 298.15 K): 0.00986 | solubility (mole fraction) (in n-butanol, 303.15 K): 0.0132 | solubility (mole fraction) (in n-butanol, 308.15 K): 0.0171 | solubility (mole fraction) (in n-butanol, 313.15 K): 0.0222 | solubility (mole fraction) (in n-butanol, 318.15 K): 0.0287 | solubility (mole fraction) (in n-butanol, 323.15 K): 0.0366 | solubility (mole fraction) (in n-butanol, 328.15 K): 0.0466 | solubility (mole fraction) (in n-propanol, 278.15 K): 0.00451 | solubility (mole fraction) (in n-propanol, 283.15 K): 0.00593 | solubility (mole fraction) (in n-propanol, 288.15 K): 0.00778 | solubility (mole fraction) (in n-propanol, 293.15 K): 0.0111 | solubility (mole fraction) (in n-propanol, 298.15 K): 0.0135 | solubility (mole fraction) (in n-propanol, 303.15 K): 0.0181 | solubility (mole fraction) (in n-propanol, 308.15 K): 0.0237 | solubility (mole fraction) (in n-propanol, 313.15 K): 0.0308 | solubility (mole fraction) (in n-propanol, 318.15 K): 0.0396 | solubility (mole fraction) (in n-propanol, 323.15 K): 0.0503 | solubility (mole fraction) (in n-propanol, 328.15 K): 0.0638
